“Also recorded” adds a separate entry of the source.
Assays:
Assay type in all cases: cell-based
[1] = system: RIN-5AH insulinoma beta cell line; test: Insulin secretion (insulin ELISA of supernatants); conditions: for activation at 5 µM: RIN-5AH cells, treated in medium for 2 hours, read-out: AV_INSULIN (percent increase in insulin secretion over a DMSO control); for insulin secretion relative to a DMSO control, compared to previously reported quinoline compounds: 5 µM compound 12 vs 50 µM quinidine or chloroquine, 10 µM levofloxacin or gatifloxacin, Figure 1; for effect on insulin secretion: negative control quinoline compounds
Procedure: Culture medium and supplements were purchased from Life Technologies. The RIN-5AH insulinoma beta cell line was cultured in RPMI 1640 supplemented with 10% FBS, 2 mM glutamine. All culture media contained 1x penicillin-streptomycin. Cells were grown on 15 cm culture plates at 37°C under 5% CO2 in high humidity atmosphere.
To determine the insulin level from the supernatants insulin ELISA kits from Millipore or Mercodia were used. RIN-5AH cells were seeded in 96 well or 12 well plates and grown overnight. RIN-5AH cells never reached more than 80% confluency before treatment. Cells were washed once with PBS before treatment. Cells were treated in medium for 2 hours and with 5 µM of insulin secretagogue according to the present invention, if not otherwise indicated. After treatment 100ul of supernatant was taken. Samples were assayed immediately or stored at -20°C until measurement. Dilutions were made if necessary and ELISA was subsequently performed according to the user's manual. Insulin secretion was normalized to cell number by MTT assay or to total protein amount by BCA assay (ThermoFisher Scientific, 23225). Plates were read on BioTrek Elx800 absorbance reader at 450 nm.
RIN-5AH beta cells were treated with 5 µM compound 12 or 50 µM quinidine or chloroquine according to the above described protocol (Example 1).

[2] = system: RIN-5AH cells; test: Calcium influx by FACS analysis (Fluo-4 AM fluorescence); conditions: extracellular Ca2+ present, compound 12 at 5 µM
Procedure: Calcium influx was measured by FACS analysis, similar to protocols previously described (Brewis, I. A., journal of andrology 21, 238-249, doi:10.1002/j.1939-4640.2000.tb02101.x (2000); Vines, A., Cytometry Part A 77A, 1091-1097, doi:10.1002/cyto.a.20974 (2010); Schepers, E., Journal of Immunological Methods 348, 74-82, doi:http://dx.doi.org/10.1016/j.jim.2009.07.002 (2009)).
RIN-5AH cells (30,000 cells per well) were plated in 12 well plates and incubated overnight at 37°C and 5% CO2. Cells were stained with Fluo-4 AM (molecular probes, F14201) by using a 3µM stock solution prepared in HBSS with Ca2+ and Mg2+ (HBSS++) and with addition of a final amount of 0.02% Pluronic-F127 (molecular probes, P6867). Cells were incubated with 600ul of the dye/well for 1h at 37°C, in 5% CO2. They were washed 2x with Ca2+ and Mg2+ free HBSS (HBSS--) (Gibco, 14170) before moving to the next step of the protocol (see below).
Cells were trypsinized for three minutes at 37°C and 5% CO2. The cell suspension was then diluted by adding 1ml HBSS-- / well and centrifuged for 3 minutes at 1200 RPM. Cells were resuspended in 1 mL of HBSS++ or HBSS-- before starting the measurement. Base fluorescent signal was recorded for 30 seconds followed by treatment with the various compounds by quickly adding the compounds to the FACS analysis tubes, while acquisition was not interrupted (gaps). […] Samples were measured continuously for the desired time and all measurements were completed within 40 minutes. Unstained cells and stained cells in external buffer without Ca2+ and Mg2+ (HBSS--) were used as negative controls for the treatments. Data were acquired on BD-FACSCalibur and the visualizations were prepared by FlowJo software.

[3] = system: RIN-5AH cells; test: Whole cell patch clamp (current clamp and voltage clamp)
Procedure: For the purpose of investigation of membrane potential changes and membrane depolarization that triggers and activate voltage dependent calcium channels in beta cells, whole cell patch clamp studies were conducted with the compounds of the present invention. RIN-5AH cells were trypsinized and suspended in medium. Cells were transferred into the recording chamber and allowed to settle down before beginning a slow perfusion with the external buffer (138.0 mM; NaCl; 5.6 mM KCl; 11.1 mM Glucose; 1.2 mM; MgCl2; 2.6 mM CaCl2; 10.0 mM HEPES). Cells were sealed and patched by the application of a gentle negative pressure. Holding membrane potential was set up to -70mV for voltage clamp experiments. After patching the cells, at least 10s of base signal was recorded for both voltage clamp and current clamp measurements. External stimulation of cells was done by using Picospritzer II instrument (Parker) with 5psi for 30s with the desired concentrations (50uM and 500uM for compound 12 and 500uM for glibenclamide as control). The total recording time was set to 1-4 minutes.

Row | SMILES | activation at 5 µM [1] [%] | divalent calcium cation influx (Fluo-4 AM fluorescence by FACS) ([2]; Figure 2) | further results
1 | COc1c(F)ccc2c(Nc3ccc(Cl)cc3C(F)(F)F)cc(C#N)nc12 [Compound 4, 4-[4-chloro-2-(trifluoromethyl)anilino]-7-fluoro-8-methoxy-quinoline-2-carbonitrile] | 101 | induced divalent calcium cation influx | –
2 | N#Cc1cc(Nc2ccc(Cl)cc2C(F)(F)F)c2cc(F)ccc2n1 [Compound 5, 4-[4-chloro-2-(trifluoromethyl)anilino]-6-fluoro-quinoline-2-carbonitrile] | 96 | induced divalent calcium cation influx | –
3 | N#Cc1cc(Nc2ccc(Cl)cc2C(F)(F)F)c2cccc(F)c2n1 [Compound 7, 4-[4-chloro-2-(trifluoromethyl)anilino]-8-fluoro-quinoline-2-carbonitrile] | 93 | induced divalent calcium cation influx; also recorded: induced Ca2+ influx | –
4 | COc1c(F)ccc2c(Nc3c(Cl)cccc3Cl)cc(C#N)nc12 [Compound 8, 4-(2,6-dichloroanilino)-7-fluoro-8-methoxy-quinoline-2-carbonitrile] | 93 | induced divalent calcium cation influx; also recorded: induced Ca2+ influx | –
5 | COc1cc(Nc2cc(C#N)nc3cc(F)ccc23)c(Cl)cc1Cl [Compound 12, 4-(2,4-dichloro-5-methoxy-anilino)-7-fluoro-quinoline-2-carbonitrile] | 85 | induced divalent calcium cation influx | insulin secretion relative to a DMSO control, compared to previously reported quinoline compounds [1]: more effective; insulin secretion relative to a DMSO control, compared to previously reported quinoline compounds ([1]; listed as compound 12): significantly superior activity; divalent calcium cation influx (Fluo-4 AM fluorescence by FACS) ([2]; Figure 2, listed as compound 12): induces divalent calcium cation influx; also recorded: induced Ca2+ influx; time membrane potential is kept in depolarized state / returns to its initial value ([3]; current clamp): > 240 s; depolarization rate ([3]; current clamp, 500 µM, Figure 3): dramatically increased; shift in membrane potential in current clamp mode (CC) ([3]; from -70mV, after puffs for 30s, Figures 3A and 3B): -20 mV; onset of increase of inward current ([3]; voltage clamp): immediately; maximal inward current versus GBA treated cells ([3]; voltage clamp, 50 µM compound 12 vs GBA): more than 5 fold; difference of maximal inward ion current versus GBA ([3]; voltage clamp, same concentrations of compound 12 and GBA (500 µM)): more than 10 fold; duration of effect on inward current compared to GBA ([3]; voltage clamp, Figure 4): longer lasting effect; time until inward current flow returned back to baseline ([3]; voltage clamp, Figure 4): 3 min
6 | COc1cc2c(Nc3ccc(Cl)cc3C(F)(F)F)cc(C#N)nc2cc1F [Compound 13, 4-[4-chloro-2-(trifluoromethyl)anilino]-7-fluoro-6-methoxy-quinoline-2-carbonitrile] | 83 | induced divalent calcium cation influx; also recorded: induced Ca2+ influx | –
7 | N#Cc1cc(Nc2c(Cl)cccc2Cl)c2cccc(F)c2n1 [Compound 18, 4-(2,6-dichloroanilino)-8-fluoro-quinoline-2-carbonitrile] | 73 | induced divalent calcium cation influx; also recorded: induced Ca2+ influx | –
8 | COc1cc(Nc2cc(C#N)nc3cc(F)c(OCCCN4C(=O)c5ccccc5C4=O)cc23)c(Cl)cc1Cl [Compound 63, 4-(2,4-dichloro-5-methoxy-anilino)-6-[3-(1,3-dioxoisoindolin-2-yl)propoxy]-7-fluoro-quinoline-2-carbonitrile] | – | did not show any increase | effect on insulin secretion [1]: didn't show any effect
9 | COc1cc(Nc2ccnc3cc(OCc4ccccc4)c(OC)cc23)c(Cl)cc1Cl [Compound 73, 7-benzyloxy-N-(2,4-dichloro-5-methoxy-phenyl)-6-methoxy-quinolin-4-amine] | – | did not show any increase | effect on insulin secretion [1]: didn't show any effect
10 | COc1ccc(Cl)cc1C(=O)NCCc1ccc(S(=O)(=O)NC(=O)NC2CCCCC2)cc1 [GBA, glibenclamide, reference compound] | – | caused calcium influx, however, with a delayed response | time membrane potential is kept in depolarized state / returns to its initial value ([3]; current clamp): 90 s; onset of increase of inward current ([3]; voltage clamp): small delayed response
